The record followed here is patent US7462614B2, “Imidazotriazine compounds” (Smithkline Beecham Corporation, priority 2003, dated 2008).

T1 sequence (P53350 21-346): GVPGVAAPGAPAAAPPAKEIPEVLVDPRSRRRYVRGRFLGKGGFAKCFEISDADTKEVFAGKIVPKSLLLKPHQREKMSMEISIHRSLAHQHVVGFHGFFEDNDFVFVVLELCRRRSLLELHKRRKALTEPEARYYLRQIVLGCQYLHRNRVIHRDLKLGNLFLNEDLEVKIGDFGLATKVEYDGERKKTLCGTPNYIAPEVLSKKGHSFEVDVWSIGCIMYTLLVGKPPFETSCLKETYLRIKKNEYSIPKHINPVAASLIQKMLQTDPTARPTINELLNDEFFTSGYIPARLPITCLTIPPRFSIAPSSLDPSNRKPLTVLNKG

This assay addresses T1, truncated human PLK1 (kinase domain) (Homo sapiens, UniProt P53350).
T1 construct: made in house; host or cells: baculovirus-infected T. ni insect cells
The assay is described as follows: Assay for Inhibition of PLK1 (33P SPA enzyme activity). The assay is classed as biochemical. Conditions: 1 μM ATP, 2 nM enzyme; read-out: Ave pIC50 PLK Enzyme Inhibition (converted). The protocol:
I. Assay for Inhibition of PLK1
A. Preparation of 6× N-Terminal His-Tagged PLK Kinase Domain
All procedures are performed at 4° C. Cells are lysed in 25 mM HEPES, 200 mM NaCl, 25 mM imidazole; pH 8.0. The homogenate is centrifuged at 14K rpm in a SLA-1500 rotor for 40 min and the supernatant filtered through a 1.2 micron filter. The supernatant is loaded onto a Nickel chelating Sepharose (Amersham Pharmacia) column and washed with 25 mM HEPES, 500 mM NaCl, 25 mM imidazole; pH 8.0. […] PLK is concentrated using a 10 kDa molecular weight cutoff membrane and then loaded onto a Superdex 75 gel filtration (Amersham BioSciences) column equilibrated in 25 mM HEPES, 1 mM DTT, 500 mM NaCl; pH 8.0. Fractions containing PLK are determined by SDS-PAGE. PLK is pooled, aliquoted and stored at […]. Samples are quality controlled using mass spectrometry.
B. Enzyme Activity±Inhibitors is Determined As Follows:
Compounds are added to the plate (1 μL in 100% DMSO).
Immediately upon addition of enzyme and thorough mixing, add 20 uL per well into 384-well white plates containing compounds and controls. […] The enzymatic reaction is stopped with 50 μl of bead mix (50 mM EDTA, 2 mg/ml Streptavidin-coated SPA beads in Standard Dulbecco's PBS (without Mg^2+and Ca^2+), and 60 μM ATP).
Regarding `COc1cc(Nc2ncc3c(C)nc(-c4cccc(Nc5ccc(N6CCOCC6)c(Cl)c5)c4)n3n2)cc(OC)c1OC` [Example 66, 7-{3-[(3-Chloro-4-morpholin-4-ylphenyl)amino]phenyl}-5-methyl-N-(3,4,5-trimethoxyphenyl)imidazo[5,1-f][1,2,4]triazin-2-amine], the IC50 is 0.1 to 10 µM.

For `COc1cc(Nc2ncc3c(C)nc(-c4cccc(Nc5cccc(CS(=O)(=O)N(C)C)c5)c4)n3n2)cc(OC)c1OC` [Example 67, N,N-Dimethyl-1-{3-[(3-{5-methyl-2-[(3,4,5-trimethoxyphenyl)amino]imidazo[5,1-f][1,2,4]triazin-7-yl}phenyl)amino]phenyl}methanesulfonamide], the IC50 was 0.1 to 10 µM.

Consider `COc1cc(Nc2ncc3c(C)nc(-c4cccc(Nc5ccc(CN6CCN(C)CC6)cc5)c4)n3n2)cc(OC)c1OC` [Example 68, 5-Methyl-7-[3-({4-[(4-methylpiperazin-1-yl)methyl]phenyl}-amino)phenyl]-N-/(3,4,5-trimethoxyphenyl)imidazo[5,1-f][1,2,4]triazin-2-amine], for which the IC50 was more than 10 µM.

In the case of `COc1cc(Nc2ncc3c(C)nc(-c4cccc(Nc5cccc(S(=O)(=O)NC6CC6)c5)c4)n3n2)cc(OC)c1OC` [Example 69, N-Cyclopropyl-3-[(3-{5-methyl-2-[(3,4,5-trimethoxyphenyl)amino]imidazo[5,1-f][1,2,4]triazin-7-yl}phenyl)amino]benzenesulfonamide], the IC50 was 0.1 to 10 µM.

With `COc1ccc(Nc2ncc3c(C)nc(-c4ccc(Br)s4)n3n2)cc1` [Example 70, 7-(5-Bromo-2-thienyl)-5-methyl-N-[4-(methyloxy)phenyl]imidazo[5.1-f][1,2,4]triazin-2-amine], the IC50 was 0.1 to 10 µM.

For the molecule `COc1ccc(Nc2ncc3c(C)nc(-c4sccc4Br)n3n2)cc1` [Example 71, 7-(3-Bromo-2-thienyl)-5-methyl-N-[4-(methyloxy)phenyl]imidazo[5,1-f][1,2,4]triazin-2-amine], the IC50 was 0.1 to 10 µM.

As for `COc1ccc(Nc2ncc3c(C)nc(C4CCOCC4)n3n2)cc1` [Example 72, 5-Methyl-N-[4-(methyloxy)phenyl]-7-(tetrahydro-2H-pyran-4-yl)imidazo[5,1-f][1,2,4]triazin-2-amine], the IC50 was 0.1 to 10 µM.

Consider `COc1ccc(Nc2ncc3c(C)nc(-c4ccccc4OC)n3n2)cc1` [Example 73, 5-Methyl-7-[2-(methyloxy)phenyl]-N-[4-(methyloxy)phenyl]-imidazo[5,1-f][1,2,4]triazin-2-amine], for which the IC50 was 0.1 to 10 µM.

Regarding `COc1ccc(Nc2ncc3c(C)nc(-c4cccc(OC)c4)n3n2)cc1` [Example 74, 5-Methyl-7-[3-(methyloxy)phenyl]-N-[4-(methyloxy)phenyl]-imidazo[5,1-f][1,2,4]triazin-2-amine], the IC50 is 0.1 to 10 µM.

For `COc1ccc(Nc2ncc3c(C)nc(-c4ccccc4Cl)n3n2)cc1` [Example 75, 7-(2-Chlorophenyl)-5-methyl-N-[4-(methyloxy)phenyl]imidazo[5,1-f][1,2,4]triazin-2-amine], the IC50 was 0.1 to 10 µM.

For the molecule `COc1ccc(Nc2ncc3c(C)nc(-c4cn(C)c5ccccc45)n3n2)cc1` [Example 76, 5-Methyl-7-(1-methyl-1H-indol-3-yl)-N-[4-(methyloxy)phenyl]imidazo[5,1-f][1,2,4]triazin-2-amine], the IC50 is 0.1 to 10 µM.

Consider `COc1ccc(Nc2ncc3c(C)nc(C(C)c4ccccc4)n3n2)cc1` (centres unmarked) [Example 77, 5-Methyl-N-[4-(methyloxy)phenyl]-7-(1-phenylethyl)imidazo[5,1-f][1,2,4]triazin-2-amine], for which the IC50 is more than 10 µM.

For the molecule `COc1ccc(Nc2ncc3c(C)nc(-c4cc5ccccc5n4C)n3n2)cc1` [Example 78, 5-Methyl-7-(1-methyl-1H-indol-2-yl)-N-[4-(methyloxy)phenyl]imidazo[5,1-f][1,2,4]triazin-2-amine], the IC50 is more than 10 µM.

Take `COc1ccc(Nc2ncc3c(C)nc(-c4ccsc4)n3n2)cc1` [Example 79, 5-Methyl-N-[4-(methyloxy)phenyl]-7-(3-thienyl)imidazo[5,1-f][1,2,4]triazin-2-amine]: the IC50 was 0.1 to 10 µM.
